Read-outs that look alike come from different tables or passages of the source.
What was measured:
FADD−/− Jurkat cells = experiment: Inhibition of TNF-induced programmed necrosis of FADD deficient Jurkat cells (Cell Titer-Glo viability); format: cell-based
From the text: (§1) The adopted biological assay protocol was: the effect of compounds on programmed necroptosis of TNF-induced FADD (Fas-Associated Death Domain) deficient Jurkat cells and L929 cells.
(§2) In order to verify the inhibitory effect of the compounds of the present invention on programmed cell necrosis at the cellular level, cell types that is closely related to the RIP1 pathway, namely FADD deficient Jurkat cells (human peripheral blood leukemia T cell strain) and L929 cells, were selected. Two different stimulation methods were used: tumor necrosis factor (TNFα) was used alone, or TNFα was used in combination with mitochondria-derived cysteine aspartate activator (SMAC) SM164. Cells viability was calculated by detecting chemiluminescence values, thereby obtaining the biological activity of the compound on the inhibition of programmed cell necrosis.
(§3) Methods: FADD deficient Jurkat cells: FADD deficient Jurkat cells (human peripheral blood leukemia T cell line) were cultured in vitro. After growing to the logarithmic growth phase, the cells were collected, centrifuged at 1000 rpm for 5 min, the supernatant was discarded, and the cell concentration was adjusted to 2.5×10^5/mL. Cells were seeded into 384-well plates, 40 μl per well. 5 μL of SM164 (50 nM) diluted in cell culture medium and 5 μL of each compound were added to the corresponding wells. After pretreatment at 37° C. for 1 h, 5 μL of TNFα (50 ng/mL) diluted in cell culture medium was added to each well of the stimulation group, and 5 μL of the culture medium was added to the control group. The plate was cultured in a cell incubator (37° C., 5% CO2) for 14 h, and […] of Cell Titer-Glo solution was added to each well, then incubated for 30 min at room temperature, and intracellular ATP level was measured by detecting luminescence. The unstimulated DMSO control wells were taken as 100% cell viability. L929 cells: The L929 cells (mouse fibroblasts) were cultured in vitro, digested and diluted to 6.25×10^4/ml, and the cells were seeded into 384-well plates, 40 μl per well. The plate was placed in a cell incubator (37° C., 5% CO2) for 12 hours. 5 μL of SM164 (500 nM) diluted in cell culture medium and 5 μL of each compound were added to the corresponding wells. After pretreatment at 37° C. for 1 h, 5 μL of TNFα (500 ng/mL) diluted in cell culture medium was added to each well of the stimulation group, and 5 μL of the culture medium was added to the control group. After the plate was cultured for 14 h in a cell incubator (37° C., 5% CO2), 15 μl of Cell Titer-Glo solution was added to each well. The plate was incubated at room temperature for 30 min, and intracellular ATP level was measured by detecting luminescence. The unstimulated DMSO control wells were taken as 100% cell viability. EC50 values of the compounds were calculated using Prism Graphpad statistical software.

L929 cells = experiment: Inhibition of TNF-induced programmed necrosis of L929 cells (Cell Titer-Glo viability); format: cell-based, mouse
From the text: as §1, §2, §3

[1] = Homo sapiens, Jurkat, 14 h, FADD−/− Jurkat cells, stimulated with TNFα + SM164, read-out: EC50 (μM) FADD−/− Jurkat cells (human) TNFα + SM164
[2] = Homo sapiens, Jurkat, FADD−/− Jurkat cells, stimulated with TNFα alone, read-out: EC50 (μM) FADD−/− Jurkat cells (human) TNFα
[3] = Mus musculus, L929, L929 cells, stimulated with TNFα + SM164, read-out: EC50 (μM) L929 cells (mouse) TNFα + SM164
[4] = Mus musculus, L929, L929 cells, stimulated with TNFα alone, read-out: EC50 (μM) L929 cells (mouse) TNFα
[5] = FADD−/− Jurkat cells, stimulated with TNFα + SM164, read-out: EC50 (μM) FADD−/− Jurkat cells (human) TNFα + SM164
[6] = FADD−/− Jurkat cells, stimulated with TNFα alone, read-out: EC50 (μM) FADD−/− Jurkat cells (human) TNFα

Compound | EC50 (FADD−/− Jurkat cells; [1]) | EC50 (FADD−/− Jurkat cells; [2]) | EC50 (L929 cells; [3]) | EC50 (L929 cells; [4]) | also measured
COc1cnc2c(c1)ncn2-c1ccc(CNC(=O)c2nnn(C)c2Cc2ccccc2)cc1 [ET-0934] | 15.5 nM | 0.489 nM | 558 nM | 16.6 nM | 
COc1ccc2ncn(-c3ccc(CNC(=O)c4nnn(C)c4Cc4ccccc4)cc3)c2n1 [ET-0935] | 0.244 nM | 0.0235 nM | 0.001 nM | 0.001 nM | activity of inhibition of programmed necrosis compared with GSK2982772 (FADD−/− Jurkat cells; human FADD-deficient Jurkat cells, TNFα alone or in combination with SM164): stronger activity
CNC(=O)c1ccc2c(c1)ncn2-c1ccc(CC(=O)NCc2c[nH]c3ccccc23)cc1 [QY-5-35, 1-(4-(2-(((1H-indole-3-yl)methyl)amino)-2-oxoethyl)phenyl)-N-methyl-1H-benzo[d]imidazol-5-formamide] | > 10000 nM | 2490 nM | > 10000 nM | > 10000 nM | 
CNC(=O)c1ccc2c(c1)ncn2-c1ccc(CC(=O)N(C)Cc2cc(F)cc(F)c2F)cc1 [QY-5-40, N-methyl-1-(4-(2-(methyl(2,3,5-trifluorobenzyl)amino)-2-oxoethyl)phenyl)-1H-benzo[d]imidazol-5-formamide] | > 10000 nM | 2500 nM | > 10000 nM | 5000 nM | 
CNC(=O)c1ccc2c(c1)ncn2-c1ccc(CC(=O)N(O)Cc2ccccc2)cc1 [QY-5-62, 1-(4-(2-(benzyl(hydroxy)amino)-2-oxoethyl)phenyl)-N-methyl-1H-benzo[d]imidazol-5-formamide] |  |  | > 10000 nM | 3800 nM | EC50 (FADD−/− Jurkat cells; Homo sapiens, Jurkat, 14 h, read-out: EC50 (μM) FADD−/− Jurkat cells (human) TNFα + SM164): 98 nM; EC50 (FADD−/− Jurkat cells; Homo sapiens, Jurkat, read-out: EC50 (μM) FADD−/− Jurkat cells (human) TNFα): 4.98 nM
CNC(=O)c1ccc2c(c1)ncn2-c1ccc(NC(=O)c2nocc2Cc2ccccc2)cc1 [QY-6-15] | > 10000 nM | 1370 nM | > 10000 nM | > 10000 nM | 
CNC(=O)c1ccc2c(c1)ncn2-c1ccc(CNC(=O)c2cc(Cc3ccccc3)n(C)n2)cc1 [QY-7-2B, 1-(4-((5-benzyl-1-methyl-1H-pyrazole-3-carboxamido)methyl)phenyl)-N-methyl-1H-benzo[d]imidazol-5-carboxamide] | 43.9 nM | 5.12 nM | 2020 nM | 312 nM | 
CNC(=O)c1ccc2c(c1)ncn2-c1ccc(CNC(=O)c2nnc(Cc3ccccc3)o2)cc1 [QY-7-32, 5-Benzyl-N-(4-(5-(methylcarbamoyl)-1H-benzo[d]imidazol-1-yl)benzyl)-1,3,4-oxadiazol-2-carboxamide] | 1520 nM | 185 nM | > 10000 nM | > 10000 nM | 
CNC(=O)c1ccc2c(c1)ncn2-c1ccc(CC(=O)N2CCCC2c2ccccc2)cc1 (stereo not drawn) [QY-7-65, N-methyl-1-(4-(2-oxo-2-(2-phenylpyrrolidin-1-yl)ethyl)phenyl)-1H-benzo[d]imidazol-5-carboxamide] | > 10000 nM | > 10000 nM | > 10000 nM | > 10000 nM | 
Nc1ncnc2c1ccn2-c1ccc(CNC(=O)c2ncc(Cc3ccccc3)o2)cc1 [QY-8-30, N-(4-(4-amino-7H-pyrrolo[2,3-d]pyrimidine-7-yl)benzyl)-5-benzyloxazol-2-carboxamide] | 13 nM | 11.2 nM | 6300 nM | 829 nM | 
Cn1nc(C(=O)NCc2ccc(-n3cnc4c(N)ncnc43)cc2)cc1Cc1ccccc1 [QY-8-31] |  |  |  |  | EC50 (FADD−/− Jurkat cells; [5]): 7400 nM; EC50 (FADD−/− Jurkat cells; [6]): 1300 nM; EC50 (L929 cells; L929 cells, stimulated with TNFα + SM164, read-out: EC50 (μM) L929 cells (mouse) TNFα + SM164): > 10000 nM; EC50 (L929 cells; L929 cells, stimulated with TNFα alone, read-out: EC50 (μM) L929 cells (mouse) TNFα): > 10000 nM
CNC(=O)c1ccc2c(c1)ncn2-c1ccc(CC(=O)NC(C)(C)C(=O)N2CCCC2c2ccc(C)cc2)cc1 (stereo not drawn) [QY-8-42] | > 10000 nM | > 10000 nM | > 10000 nM | > 10000 nM | 
Nc1ncnc2c1ccn2-c1ccc(CNC(=O)c2cc(Cc3ccccc3)on2)cc1 [QY-8-48] | > 10000 nM | 972 nM | > 10000 nM | > 10000 nM | 
Nc1ncnc2c1ccn2-c1ccc(CNC(=O)c2nnn(Cc3ccccc3)n2)cc1 [QY-8-58, N-(4-(4-amino-7H-pyrrolo[2,3-d]pyrimidin-7-yl)benzyl)-2-benzyl-2H-tetrazol-5-carboxamide] | 577 nM | 196 nM | > 10000 nM | > 10000 nM | 
Nc1ncnc2c1ccn2-c1ccc(CNC(=O)c2n[nH]c(Cc3ccccc3)n2)cc1 [QY-8-60, N-(4-(4-amino-7H-pyrrolo[2,3-d]pyrimidine-7-yl)benzyl)-5-benzyl-1H-1,2,4-triazol-3-carboxamide] | > 10000 nM | > 10000 nM | > 10000 nM | > 10000 nM | 
Nc1ncnc2c1ccn2-c1ccc(CNC(=O)Cc2cccc(OC(F)(F)F)c2)cc1 [QY-9-69, O—N-(4-(4-amino-7H-pyrrolo[2,3-d]pyrimidine-7-yl)benzyl)-2-(3-(trifluoromethoxy)phenyl)acetamide] | > 10000 nM | > 10000 nM | > 10000 nM | 567 nM | 
Nc1ncnc2c1ncn2-c1ccc(CNC(=O)Cc2cccc(OC(F)(F)F)c2)cc1 [QY-9-70] | > 10000 nM | 2960 nM | 6300 nM | 350 nM | 
Nc1ncnc2c1ncn2-c1ccc(CNC(=O)c2n[nH]c3ncc(C(F)(F)C(F)(F)F)cc23)cc1 [QY-9-77, N-(4-(6-amino-9H-purin-9-yl)benzyl)-5-(perfluoroethyl)-1H-pyrazolo[3,4-b]pyridine-3-carboxamide] | 171 nM | 9.04 nM | 5000 nM | 344 nM | 
Cn1nc(C(=O)NCc2ccc(-n3ccc4c(N)ncnc43)cc2)cc1Cc1ccccc1 [QY-10-21, N-(4-(4-amino-7H-pyrrolo[2,3-d]pyrimidin-7-yl)benzyl)-5-benzyl-1-methyl-1H-pyrazol-3-carboxamide] | 299 nM | 49 nM | > 10000 nM | > 10000 nM | 
CCn1ncc(C(=O)NCc2ccc(-n3cnc4c(N)ncnc43)cc2)c1Cc1ccccc1 [QY-10-65] | 34.6 nM | 1.2 nM | 73.8 nM | 22.1 nM | 
CNC(=O)c1ccc2c(c1)ncn2-c1ccc(CNC(=O)c2cnn(C)c2Cc2ccccc2)cc1 [QY-10-73] | 5.2 nM | 0.0697 nM | 76.7 nM | 20 nM | 
Cn1ncc(C(=O)NCc2ccc(-n3cnc4ccc(C(=O)NCCN5CCOCC5)cc43)cc2)c1Cc1ccccc1 [QY-11-68A] | 3.79 nM | 0.581 nM | 1.58 nM | 161 nM | 
CN1CCN(CCNC(=O)c2ccc3ncn(-c4ccc(CNC(=O)c5cnn(C)c5Cc5ccccc5)cc4)c3c2)CC1 [QY-11-69A] | 194 nM | 3 nM | > 10000 nM | > 10000 nM | 
CN(C)CCNC(=O)c1ccc2ncn(-c3ccc(CNC(=O)c4cnn(C)c4Cc4ccccc4)cc3)c2c1 [QY-11-74A] | 368 nM | 53 nM | > 10000 nM | > 10000 nM | 
CNC(=O)c1ccc2c(cnn2-c2ccc(CNC(=O)c3cnn(C)c3Cc3ccccc3)cc2)c1 [QY-11-104] | 48.4 nM | 4.43 nM |  |  | 
COc1ccc2c(c1)ncn2-c1ccc(CNC(=O)c2cnn(C)c2Cc2ccccc2)cc1 [QY-12-4] |  |  |  |  | EC50 (FADD−/− Jurkat cells; [5]): 128 nM; EC50 (FADD−/− Jurkat cells; [6]): 17.6 nM
C[C@H](NC(=O)c1nnn(C)c1Cc1ccccc1)c1ccc(-n2cnc3c(N)ncnc32)cc1 [QY-13-50] | 0.001 nM | 0.001 nM |  |  | 
Nc1ncnc2c1ncn2-c1ccc(CNC(=O)c2cncn2Cc2ccccc2)cc1 [ZSQ-21-14] | > 10000 nM | 290 nM |  |  | 

Reference: patent publication US20230331707A1, “PROGRAMMED CELL NECROSIS INHIBITOR, PREPARATION METHOD THEREFOR, AND USE THEREOF” (Shanghai Institute of Organic Chemistry, Chinese Academy of …, priority 2020, published 2023)
